Key:
SH-SY5Y, HeLa = test: MTT cell proliferation assay and trypan blue count (cell viability); assay type: cell-based; conditions: cells treated for 48 and 72 hours; read-out: IC50 values (inhibition of cellular proliferation, MTT assay and trypan blue assay)
Description: Cell based assays were used to evaluate the possible cytotoxic effects of some compounds. To measure cytotoxic effects two different methods were used, a MTT cell proliferation assay and trypan blue count.
The Trypan blue assay is used to determine the number of viable cells present in a cell suspension. […] Briefly, 8×10^5 cells (SH-SY5Y, HeLa; obtained from ATCC, LGC standards, Sesto San Giovanni) were seeded in 24-well plates and treated for 48 and 72 hours. After the treatments, cells were stained with trypan blue and counted.
To analyze cell viability was used the colorimetric 3-(4,5-dimethylthiazol-2-yl)-2,5-diphenyltetrazolium bromide (MTT) method. The assay is based on the cleavage of the yellow tetrazolium salt MTT to purple formazan crystals by metabolic active cells. Since reduction of MTT can only occur in metabolically active cells, the level of activity is a measure of the viability of cells and conversely the cytotoxic effects of various treatments. Briefly, 8×10^5 cells (SH-SY5Y, code number CRL-2266; and HeLa, code number CCL-2) were seeded in 24-well plates and treated for 48 and 72 hours. Compounds were dissolved in DMSO and were added to the cells to give a final DMSO concentration no greater than 0.5%. Cells were washed once in Locke buffer and 300 μl of MTT (250 μg/ml in Locke buffer) were added before returning the cells to the incubator for 1 h to allow the formation of the purple formazan crystals. After 1 h, 600 μl of isopropanol/0.1 M HCl were added to each well, and the absorbance was read at 570 nm in a plate reader (Victor3V, PerkinElmer Life Sciences). For some compounds a dose response curve and IC50 for the effects on cell viability and proliferation were calculated. Cell lines used were originally purchased from ATCC (LGC standards. Sesto San Giovanni).
To evaluate the ability of each compound to inhibit cellular proliferation, cells were seeded in 24-well plates and treated for 48 and 72 hours. After the treatments the MTT assay and trypan blue assay were performed.

[1] = Microsomal stability with human liver microsomes; assay type: in vitro ADME; conditions: 50 μM substrate, 1.0 mg/mL protein, 60 minutes at 37° C., pH 7.4
Description: (§1) Male Wistar rat liver microsomes (RLM), (protein concentration: 25 mg/ml determined using the Omura and Sato method, total P450: 0.64 nmol/mg protein) were used throughout this study and prepared using an internal protocol. The cryopreserved pooled human liver microsomes (HLM), (pooled mixed sex, ten individual donors, protein concentration: 20 mg/ml, total P450: 0.36 nmol/mg) were purchased from BD Gentest™ (Woburn, Mass.) and used throughout this study.
(§2) The standard incubation mixture (1 ml final volume), was carried out in a 50 mM TRIS (Tris[hydroxymethyl]aminomethane) buffer (pH 7.4) containing 10 μl of acetonitrile (1% of total volume), and 50 μM substrate compounds. After pre-equilibration of the mixture, an appropriate volume of RLM or HLM suspension was added to give a final protein concentration of 1.0 mg/mL. The mixture was shaken for 60 minutes at 37° C. Control incubations were carried out without microsomes. Each incubation was stopped by addition of 1 ml ice-cold acetonitrile, vortexed and centrifuged at 11,000 r.p.m. for 5 min. The supernatants were analysed by LC-DAD-UV and LC-ESI-MS systems to determine the metabolic stability (% substrate residue) and the structure of metabolites respectively (Table 1).
(§3) A Shimadzu HPLC system (Shimadzu, Kyoto, Japan), consisting of two LC-10AD Vp module pumps, an SLC-10A Vp system controller, an SIL-10AD Vp autosampler, and a DGU-14-A on-line degasser were used for the analysis. Chromatographic separation was performed on a Phenomenex Luna C18(2) 150×4.6 mm (5 μm) (Phenomenex srl, Castel Bolognese, Italy) as a stationary phase protected by a C18 SecurityGuard (Phenomenex srl, Castel Bolognese, Italy). The SPD-M10Avp photodiode array detector was used to detect the analytes. LC-Solution 1.24 software was used to process the chromatograms. Aliquots (20 μL) of supernatants obtained from incubations were injected onto the HPLC system and eluted with a mobile phase (flow rate 1.0 mL/min) consisting of a A: 0.5% formic acid solution, B: acetonitrile/methanol 8:2. A Thermo Finningan LCQ Deca XP plus system equipped with a quaternary pump, a Surveyor AS autosampler, a Surveyor photodiode array detector and a vacuum degasser was used for LC/MS analyses (Thermo Electron Corporation, Waltham, Mass.). All the chromatographic separations were performed on a Phenomenex Luna C18(2)150×2 mm (4 μm) (kept at a 35° C.) as a stationary phase protected by a C18 SecurityGuard (Phenomenex srl, Castel Bolognese, Italy). Aliquots (2.0 μl) of supernatants obtained from incubations were injected onto the system and eluted with a mobile phase (flow rate 0.2 ml/min) consisting of a A: 0.2% formic acid solution, B: acetonitrile/methanol 8:2. The eluate was injected into the electrospray ion source (ESI) and MS and MS^n spectra were acquired and processed using Xcalibur® software. The operating conditions on the ion trap mass spectrometer were as follows: Positive mode, spray voltage, 5.30 kV; source current, 80 μA; capillary temperature, 350° C.; capillary voltage, 21.00 V; tube lens offset, 15.00 V; multipole 1 offset, −5.75 V; multipole 2 offset, −9.00 V; sheath gas flow (N2), 55 Auxiliary Units.

[2] = Microsomal stability with rat liver microsomes; assay type: in vitro ADME, Male Wistar rat; conditions: 50 μM substrate, 1.0 mg/mL protein, 60 minutes at 37° C., pH 7.4
Description: as §1, §2, §3

[3] = Metabolites generated from hydrolyses in RLM or HLM incubations (LC-ESI-MS); assay type: in vitro ADME, rat, human; conditions: RLM or HLM incubation, 60 minutes at 37° C.
Description: as §1, §2, §3

[4] = test system: DNBS-induced colitis in BALB/c mice; test: Experimental colitis induced by DNBS; assay type: in vivo; conditions: i.p.
Description: Animal work was authorized by the local ethical committee for animal studies (Università del Piemonte Orientale). BALB/c mice (Harlan Nossan, Milan, Italy) were anesthetized by enflurane. Dinitrobenzene sulfonic acid (DNBS; 4 mg in 100 μl of 50% ethanol) was injected into the rectum through a catheter inserted 4.5 cm proximally to the anus. Carrier alone (100 μl of 50% ethanol) was administered in control experiments. Thereafter, the animals were kept for 15 minutes in a Trendelenburg position to avoid reflux. Treatment with either solvent alone or drugs was done immediately after induction and thereafter twice a day. […] On Day 4, the animals were weighed and anaesthetized with chloral hydrate, and the abdomen was opened by a midline incision. The colon was removed, freed from surrounding tissues, opened along the antimesenteric border, rinsed, weighed, and processed for histology, biochemical measurements and immunohistochemistry. Colon damage (macroscopic damage score) was evaluated and scored by two independent observers according to the following criteria: 0, no damage; 1, localized hyperemia without ulcers; 2, linear ulcers with no significant inflammation; 3, linear ulcers with inflammation at one site; 4, two or more major sites of inflammation and ulceration extending >1 cm along the length of the colon; and 5-8, one point is added for each centimeter of ulceration beyond an initial 2 cm. Biochemical and histological analysis also included TNFalpha measurements and myeloperoxidase (MPO) measurements by ELISA assay, and VEGF, NAMPT, COX-2 measurements by immunoblotting. (Esposito E, Mazzon E, Paterniti I, Dal Toso R, Pressi G, Caminiti R, Cuzzocrea S. PPAR-alpha Contributes to the Anti-Inflammatory Activity of Verbascoside in a Model of Inflammatory Bowel Disease in Mice. PPAR Res. 2010; 2010:917312).
(§4) As previously described, the colon of DNBS- or dextran treated animals was removed after the induction of colitis. Compounds of formula (I) were administered intraperitoneally (i.p.).

NAMPT = target: T1, NAMPT (Homo sapiens, UniProt P43490); test: Direct inhibition of NAMPT enzymatic activity (Cyclex NAMPT colorimetric Assay Kit); assay type: biochemical; conditions: as assessed with a cycling assay
T1 construct: endogenous in cells; host or cells: SH-SY5Y and HeLa
Description: Determination of the direct activity of compounds on NAMPT was performed using a commercial kit, Cyclex NAMPT colorimetric Assay Kit.

[5] = test system: Dextran-induced colitis in C57/BJ6 mice; test: Experimental colitis induced by dextran sulfate sodium (DSS); assay type: in vivo; conditions: i.p., doses of between 20 mg/Kg and 500 mg/Kg
Description: Animal work was authorized by the local ethical committee for animal studies (Università del Piemonte Orientale). Colitis was induced in C57/BJ6 mice (Harlan Nossan, Milan, Italy) by addition of DSS (2%) to their daily drinking water for 7 days followed by a 3-day recovery period without DSS. The severity of colitis was assessed using these set of criteria: (1) clinical index (daily changes in body weight; diarrhea and rectal bleeding); (2) macroscopic evidence of colitis (shortening of colon length). On day 10 of the experiment, animals were sacrificed. Treatments were performed with either solvent alone or drugs once a day for the entire duration of the experiments from day 1 to day 7. The colon lengths were measured and colon tissues were harvested for biochemical measurements, histopathological assessment and scoring. (Tang Y, Preuss F, Turek F W, Jakate S, Keshavarzian A. Sleep deprivation worsens inflammation and delays recovery in a mouse model of colitis. Sleep Med. 2009 June; 10(6):597-603).
as §4

[6] = DNBS-treated mice, between 20 mg/Kg and 500 mg/Kg, compared to untreated colitis mice

T1 sequence (P43490 whole entry): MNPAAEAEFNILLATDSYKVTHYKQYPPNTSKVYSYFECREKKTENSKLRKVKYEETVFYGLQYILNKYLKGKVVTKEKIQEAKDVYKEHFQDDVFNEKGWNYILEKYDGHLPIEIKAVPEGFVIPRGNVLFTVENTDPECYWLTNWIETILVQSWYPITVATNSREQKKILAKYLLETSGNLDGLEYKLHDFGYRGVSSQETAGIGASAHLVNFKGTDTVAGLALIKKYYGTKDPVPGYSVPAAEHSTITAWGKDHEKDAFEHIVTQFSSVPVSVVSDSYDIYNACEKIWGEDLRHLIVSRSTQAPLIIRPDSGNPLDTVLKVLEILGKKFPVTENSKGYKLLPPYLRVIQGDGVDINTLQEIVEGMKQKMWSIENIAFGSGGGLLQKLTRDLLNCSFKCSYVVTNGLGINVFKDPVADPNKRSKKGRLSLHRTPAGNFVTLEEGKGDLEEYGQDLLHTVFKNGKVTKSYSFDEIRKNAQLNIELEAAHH

Compound	IC50 (SH-SY5Y, HeLa)	HLM stability % substrate residue (area peak) [1]	RLM stability % substrate residue (area peak) [2]	Metabolites generated from hydrolyses [3]	MPO in the colon [4, 6]	NAMPT in the colon [4, 6]	TNFalpha in the colon [4, 6]	VEGF in the colon [4, 6]	protection from DNBS-induced colitis as assessed by the macroscopic damage score ([4]; doses of between 20 mg/Kg and 500 mg/Kg)	inhibition of the enzymatic activity of NAMPT (NAMPT)	protection from Dextran-induced colitis as assessed by the macroscopic damage score [5]	melting point
O=C(Nc1ccc(CCCn2cc(-c3cccnc3)nn2)cc1)c1ccccc1-c1ccccc1 [N-(4-(3-(4-(pyridin-3-yl)-1H-1,2,3-triazol-1-yl)propyl)phenyl)-[1,1′-biphenyl]-2-carboxamide]	< 0.3 µM	>98%	>99%	no								
c1ccc(-c2ccccc2OCCc2ccc(Cn3cc(-c4cccnc4)nn3)cc2)cc1 [3-(1-(4-(2-([1,1′-biphenyl]-2-yloxy)ethyl)benzyl)-1H-1,2,3-triazol-4-yl)pyridine]	< 0.3 µM	>99%	>97%	no								
O=C(O)c1ccccc1-c1ccccc1C(=O)NCCCCCCCn1cc(-c2cccnc2)nn1 [2′-((7-(4-(pyridin-3-yl)-1H-1,2,3-triazol-1-yl)heptyl)carbamoyl)-[1,1′-biphenyl]-2-carboxylic acid]	< 0.3 µM				able to reduce	able to reduce	able to reduce	able to reduce	able to protect	able to inhibit	able to protect	
O=C(NCCCCCCCn1cc(-c2cccnc2)nn1)Nc1ccccc1-c1ccccc1 [1-([1,1′-biphenyl]-2-yl)-3-(7-(4-(pyridin-3-yl)-1H-1,2,3-triazol-1-yl)heptyl)urea]	< 0.3 µM	>98%	>95%	yes (traces)						able to inhibit		
c1cncc(-c2cn(CCCCCCOc3ccccc3-c3cccnc3)nn2)c1 [3-(2-((6-(4-(pyridin-3-yl)-1H-1,2,3-triazol-1-yl)hexyl)oxy)phenyl)pyridine]	< 0.3 µM	>99%	>95%	no						able to inhibit		
O=C(NCCCCCCCn1cc(-c2cccnc2)nn1)c1ccccc1-c1cccnc1 [2-(pyridin-3-yl)-N-(7-(4-(pyridin-3-yl)-1H-1,2,3-triazol-1-yl)heptyl)benzamide]	< 0.3 µM	>96%	>99%	no						able to inhibit		
O=S(=O)(NCCCCCCCCn1cc(-c2cccnc2)nn1)c1ccccc1-c1ccccc1 [N-(8-(4-(pyridin-3-yl)-1H-1,2,3-triazol-1-yl)octyl) biphenyl-2-sulfonamide]	< 0.3 µM	>99%	>99%	no								
O=C(NCCc1ccc(Cn2cc(-c3cccnc3)nn2)cc1)c1ccccc1-c1ccccc1 [N-(4-((4-(pyridin-3-yl)-1H-1,2,3-triazol-1-yl)methyl)phenethyl)[1,1′-biphenyl]-2-carboxamide]	< 0.3 µM	>99%	>99%	no								
c1ccc(-c2ccccc2OCCCc2ccc(-n3cc(-c4cccnc4)nn3)cc2)cc1 [3-(1-(4-(3-([1,1′-biphenyl]-2-yloxy)propyl)phenyl)-1H-1,2,3-triazol-4-yl)pyridine]	< 0.3 µM	>98%	>92%	no								164 to 165 °C
O=C(NCCc1ccc(Cn2cc(-c3cccnc3)nn2)cc1)Nc1ccccc1-c1ccccc1 [1-([1,1′-biphenyl]2-yl)-3-(4-((4-(pyridin-3-yl)-1H-1,2,3-triazol-1-yl)methyl)phenethyl)urea]	< 0.3 µM	>99%	>99%	no								

From patent publication US20160075682A1, “INHIBITORS OF NICOTINAMIDE PHOSPHORIBOSYLTRANSFERASE, COMPOSITIONS, PRODUCTS AND USES THEREOF” (UNIVERSITÀ DEGLI STUDI DEL PIEMONTE ORIENTALE "AMEDEO …, priority 2013, published 2016)
